The NIST ThermoML archive (doi:10.1021/acs.jced.8b00399)

Assay: mn = molality of the nth substance listed, in mol/kg
Settings: 99.6 kPa, Liquid; for viscosity: Capillary tube (Ostwald / Ubbelohde) method; for mass density: Vibrating tube method

CNC(C)=O [N-methylacetamide] + [Cl-].[Cl-].[Zn+2]
Settings | mass density, 308.15 K [kg/m3] | mass density, 313.15 K [kg/m3] | mass density, 318.15 K [kg/m3] | mass density, 323.15 K [kg/m3] | mass density, 328.15 K [kg/m3] | viscosity, 308.15 K [mPa·s] | viscosity, 313.15 K [mPa·s] | viscosity, 318.15 K [mPa·s] | viscosity, 323.15 K [mPa·s] | viscosity, 328.15 K [mPa·s]
m2 = 0 | 946.01 | 941.81 | 937.59 | 933.36 | 929.17 | 3.57 | 3.152 | 2.8 | 2.496 | 2.245
m2 = 0.01212 | 947.01 | 942.99 | 938.78 | 934.4 | 930.23 | 3.595 | 3.169 | 2.819 | 2.512 | 2.26
m2 = 0.02085 | 948.03 | 943.83 | 939.63 | 935.24 | 931.05 | 3.615 | 3.186 | 2.834 | 2.528 | 2.271
m2 = 0.04092 | 949.55 | 945.27 | 941.06 | 936.82 | 932.75 | 3.653 | 3.223 | 2.868 | 2.558 | 2.296
m2 = 0.04735 | 950.23 | 946.04 | 941.77 | 937.56 | 933.2 | 3.669 | 3.232 | 2.876 | 2.566 | 2.304
m2 = 0.05898 | 951.13 | 946.91 | 942.72 | 938.63 | 934.26 | 3.698 | 3.255 | 2.895 | 2.584 | 2.319
m2 = 0.06108 | 951.43 | 947.18 | 942.96 | 938.78 | 934.52 | 3.703 | 3.262 | 2.9 | 2.586 | 2.322
m2 = 0.07786 | 952.85 | 948.65 | 944.45 | 940.25 | 935.97 | 3.743 | 3.293 | 2.928 | 2.612 | 2.344
m2 = 0.09351 | 954.27 | 949.99 | 945.73 | 941.52 | 937.33 | 3.778 | 3.324 | 2.955 | 2.635 | 2.364
m2 = 0.1025 | 955.14 | 950.92 | 946.63 | 942.41 | 938.12 | 3.797 | 3.347 | 2.972 | 2.652 | 2.378
m2 = 0.1083 | 955.59 | 951.41 | 947.14 | 942.93 | 938.6 | 3.81 | 3.354 | 2.982 | 2.659 | 2.384
m2 = 0.1702 | 961.31 | 957.1 | 952.84 | 948.64 | 944.4 | 3.964 | 3.495 | 3.099 | 2.765 | 2.475
m2 = 0.2236 | 966.13 | 961.88 | 957.61 | 953.37 | 949.14 | 4.112 | 3.611 | 3.202 | 2.854 | 2.553
m2 = 0.372 | 979.32 | 975.11 | 970.87 | 966.57 | 962.36 | 4.544 | 3.97 | 3.516 | 3.132 | 2.795
m2 = 0.6919 | 1007.77 | 1003.5 | 999.23 | 994.92 | 990.69 | 5.686 | 4.929 | 4.32 | 3.82 | 3.381
m2 = 1.299 | 1060.68 | 1056.36 | 1052 | 1047.7 | 1043.43 | 8.811 | 7.487 | 6.416 | 5.603 | 4.9
